The record followed here is article PMC9937801 (Journal of Pharmaceutical Analysis, 2022).

The target of the assay is squalene epoxidase (SQLE) (Homo sapiens, UniProt Q14534). Put plainly: SPR. Type of assay: binding.
squalene epoxidase (SQLE), sequence (Q14534 whole entry): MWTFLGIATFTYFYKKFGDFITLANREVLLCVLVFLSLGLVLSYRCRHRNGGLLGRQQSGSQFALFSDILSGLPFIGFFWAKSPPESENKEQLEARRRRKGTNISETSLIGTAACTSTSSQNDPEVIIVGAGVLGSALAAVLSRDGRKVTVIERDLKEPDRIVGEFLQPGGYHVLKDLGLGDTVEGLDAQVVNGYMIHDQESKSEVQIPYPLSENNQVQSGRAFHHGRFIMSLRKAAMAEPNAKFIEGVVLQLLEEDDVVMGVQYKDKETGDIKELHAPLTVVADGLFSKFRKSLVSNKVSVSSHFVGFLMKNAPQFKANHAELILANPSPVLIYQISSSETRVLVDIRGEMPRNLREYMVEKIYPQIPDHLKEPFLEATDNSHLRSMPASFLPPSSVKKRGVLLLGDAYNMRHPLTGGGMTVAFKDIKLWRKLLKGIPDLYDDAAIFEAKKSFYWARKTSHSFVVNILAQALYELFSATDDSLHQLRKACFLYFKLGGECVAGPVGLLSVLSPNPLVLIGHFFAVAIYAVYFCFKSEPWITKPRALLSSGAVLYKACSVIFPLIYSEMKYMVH

`C[C@@H]1CC[C@@]2(OC1)O[C@H]1C[C@H]3[C@@H]4CC=C5C[C@@H](O[C@@H]6O[C@H](CO)[C@@H](O[C@@H]7O[C@@H](CO)[C@H](O)[C@H]7O)[C@H](O)[C@H]6O[C@@H]6O[C@@H](C)[C@H](O)[C@@H](O)[C@H]6O)CC[C@]5(C)[C@H]4CC[C@]3(C)[C@H]1[C@@H]2C` [PPI, Polyphyllin I]: the affinity, expressed as Kd, was 26.3 µM.
